Results on 16 compounds are retold here after US8288438B2, “Methods for avoiding edema in the treatment or prevention of PPARγ-responsive diseases, including cancer” (Metabolex, Inc., priority 2005, dated 2012).

Where two headings read alike, the source gives them in different places.

One series addresses T1, PPARγ (Homo sapiens, UniProt P37231).
T1 sequence (P37231 1-505): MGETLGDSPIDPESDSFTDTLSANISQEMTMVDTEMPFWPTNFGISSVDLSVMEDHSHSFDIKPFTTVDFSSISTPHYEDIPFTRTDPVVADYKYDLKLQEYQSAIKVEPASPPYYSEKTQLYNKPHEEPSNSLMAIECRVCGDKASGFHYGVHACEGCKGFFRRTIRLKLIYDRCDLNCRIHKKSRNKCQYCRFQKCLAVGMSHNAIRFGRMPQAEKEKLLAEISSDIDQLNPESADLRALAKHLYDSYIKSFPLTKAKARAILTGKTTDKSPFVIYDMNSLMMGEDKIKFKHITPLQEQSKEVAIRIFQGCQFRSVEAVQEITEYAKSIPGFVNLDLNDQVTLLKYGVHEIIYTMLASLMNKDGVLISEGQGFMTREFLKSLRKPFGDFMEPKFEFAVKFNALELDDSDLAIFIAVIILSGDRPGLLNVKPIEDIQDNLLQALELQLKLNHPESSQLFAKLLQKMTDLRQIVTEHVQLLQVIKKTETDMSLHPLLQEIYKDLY
Kind of series: partial agonism on PPARγ (Example 8, FIG. 6). Format: cell-based. The source says:
Expression of reporter genes in response to compounds identified as binders of PPARγ may also be used to measure PPARγ activation. PPARγ may be co-transfected with reporter genes known in the art such as, for example, luciferase, β-galactosidase, alkaline phosphatase, fluorescent green protein, or chloramphenicol acetyltransferase. The transfected cells can be exposed to appropriate concentrations of candidate compounds with rosiglitazone as a positive control. Reporter gene expression will be induced by compounds that bind and activate PPARγ. Thus, compounds that induce reporter gene expression can be identified as activators of PPARγ (Forman, et al. (1997) PNAS 94:4312). Preferably the compounds induce reporter gene expression at levels at least 5-10 fold, more preferably 10-100 fold, more preferably 100-500 fold, more preferably 500-1000 fold, most preferably greater than 1000 fold greater than the negative control.
Example 8 illustrates the partial agonism of the (−) isomer of either halofenic acid or halofenate on PPARγ (see, FIG. 6).

The next series has as its system C57BL/6j ob/ob Mice. Kind of series: glucose lowering activity of halofenate analogs in C57BL/6J ob/ob mice (Example 14). It counts as in vivo. How it is done:
Male, 8-9 weeks old, C57BL/6J ob/ob mice were purchased from The Jackson Laboratory (Bar Harbor, Me., USA). Animals were housed (4-5 mice/cage) under standard laboratory conditions at 22±3° C. temperature and 50±20% relative humidity, and were maintained on a diet of Purina rodent chow and water ad libitum. Prior to treatment, blood was collected from the tail vein of each animal. Mice that had non-fasting plasma glucose levels between 250 and 500 mg/dl were used. Each treatment group consisted of 8-10 mice that were distributed so that the mean glucose levels were equivalent in each group at the start of the study. Mice were dosed orally by gavage once a day for 1-3 days with either vehicle, (−) halofenic acid, (±) analog 14, 29, 33, 34, 35, 36, 37, or 38 at 125 mg/kg or (−) analog 29, 36, 37 or 38 at 150 mg/kg. compounds were delivered in a liquid formulation containing 5% (v/v) dimethyl sulfoxide (DMSO), 1% (v/v) tween 80 and 0.9% (w/v) methylcellulose. The gavage volume was 10 ml/kg. Blood samples were taken at 6 hours after the each dose and analyzed for plasma glucose. Food intake and body weight were measured daily. Plasma glucose concentrations were determined calorimetrically using glucose oxidase method (Sigma Chemical Co, St. Louis, Mo., USA). Significant difference between groups (comparing drug-treated to vehicle-treated) was evaluated using the Student unpaired t-test.

The subject of the next series is monkeys. In words: separate animal studies: heart weight or fluid accumulation. It counts as in vivo. Conditions: therapeutically relevant doses, data not shown.
For another series, the system named is rats. The series is described as above. Format: in vivo. Conditions: therapeutically relevant doses, data not shown.
The test system of series [1] is type 2 diabetics with inadequate control on insulin. Kind of series: randomized, double-blind, placebo-controlled, multi-centre studies on type 2 diabetics with inadequate control on insulin. Format: in vivo, human. The source says: Example 9 presents the results of two randomized, double-blind, placebo-controlled, multi-centre studies on type 2 diabetics with inadequate control on insulin. […] Both studies were about 4 months long, with a stabilization/run in period for 2 to 4 weeks and a 3 month treatment period. Endpoints included fasting plasma glucose (FPG), HbA1c, weight, and the incidence of edema.

Series [2] relates to human subjects also receiving glyburide. Kind of series: 14 days of treatment in human subjects also receiving glyburide (FIG. 19, 20). Format: in vivo. To be noted: after 14 days of treatment. The text has this: The data for pioglitazone (Actos) is taken from Goldberg R B et al., Diabetes Care 28(7):1547-54 (2005), which is incorporated herein by reference.
For the next series, the target named is cytochrome P450 2C9 (Homo sapiens, UniProt P11712). Conditions: cited from earlier work.
Sequence of cytochrome P450 2C9 (P11712 whole entry): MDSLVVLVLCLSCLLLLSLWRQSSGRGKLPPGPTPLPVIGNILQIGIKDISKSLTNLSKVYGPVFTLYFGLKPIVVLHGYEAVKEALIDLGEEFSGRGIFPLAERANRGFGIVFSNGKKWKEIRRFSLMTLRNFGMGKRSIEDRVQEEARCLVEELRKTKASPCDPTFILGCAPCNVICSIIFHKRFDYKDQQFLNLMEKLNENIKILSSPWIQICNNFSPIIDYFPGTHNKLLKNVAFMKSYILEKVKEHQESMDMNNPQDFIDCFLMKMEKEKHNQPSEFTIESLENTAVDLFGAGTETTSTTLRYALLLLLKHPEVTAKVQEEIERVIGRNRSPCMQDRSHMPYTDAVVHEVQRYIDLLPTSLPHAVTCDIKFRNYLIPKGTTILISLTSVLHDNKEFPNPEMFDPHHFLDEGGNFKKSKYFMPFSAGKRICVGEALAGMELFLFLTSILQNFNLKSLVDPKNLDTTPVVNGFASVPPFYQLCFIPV
Where [3] appears, read: (−) analogs, single dose 150 mg/kg.
Where [4] appears, read: 125 mg/kg oral gavage once a day.

Regarding `O=C(O)C(Oc1ccc(Cl)cc1-n1nc2ccccc2n1)c1ccccc1` (racemic) [Formula V], the “kind of PPARγ agonism” value at PPARγ is on record as “partial PPARγ agonists”.
Consider `CC(=O)NCCOC(=O)C(Oc1cccc(C(F)(F)F)c1)c1ccc(Br)cc1` (single isomer, unassigned; (-)) [(−)Analog 29], for which the “plasma glucose concentrations vs vehicle (in words)” value with C57BL/6j ob/ob Mice (setting [3]) is reported as “significantly reduced plasma glucose concentrations at 6 hours”.
On to `CN(C)CCOC(=O)C(Oc1cccc(C(F)(F)F)c1)c1ccc(Cl)cc1` (racemic) [(±)Analog 35], for which, in the series on C57BL/6j ob/ob Mice (setting [4]), the “plasma glucose concentrations vs vehicle (in words)” value is “significantly lowered plasma glucose concentrations at 30 and 54 hours”.
Still for that read-out and setting: for `O=C(NCCOC(=O)C(Oc1cccc(C(F)(F)F)c1)c1ccc(Cl)cc1)c1ccccc1` (racemic) [(±)Analog 36] the value was “significantly lowered plasma glucose concentrations at 30 and 54 hours”; for `CC(=O)NCCOC(=O)C(Oc1cccc(C(F)(F)F)c1)c1ccc(F)cc1` (racemic) [(±)Analog 14], “significantly lowered plasma glucose concentrations at 6, 30 and 54 hours”.
Consider `CN(C)C(=O)COC(=O)C(Oc1cccc(C(F)(F)F)c1)c1ccc(Cl)cc1` (single isomer, unassigned; (-)) [(−)Analog 38], for which, in the series on C57BL/6j ob/ob Mice (setting [3]), the “plasma glucose concentrations vs vehicle (in words)” value is on record as “significantly reduced plasma glucose concentrations at 6 hours”.
On to `CC(=O)NCCOC(=O)C(Oc1cccc(C(F)(F)F)c1)c1ccc(Cl)cc1` (single isomer, unassigned; (-)) [(−) halofenate, (−) 2-acetamidoethyl 4-chlorophenyl-(3-trifluoromethylphenoxy)acetate], for which the “increases in heart weight or fluid accumulation” value in the series with monkeys and with rats was “did not cause increases” each time. At PPARγ, the “kind of PPARγ agonism” value is “partial agonist”. Besides, the “antagonizing the agonist activity of rosiglitazone” value at PPARγ (FIG. 6) was “significantly antagonizing”. Further, the “plasma glucose levels as judged by HbA1c levels compared to placebo group” value in series [1] (600 mg, analysis removing sites 60 and 70, FIG. 13) is reported as “lowered”; in series [1] (200- and 400 mg, sites 60 and 70 removed, FIG. 15) it was “lowered”; in series [1] (first study, doses of 200- and 400 mg, FIG. 8) it was “lowered”. For the same compound, the “fasting plasma glucose levels compared to placebo group” value in series [1] (600 mg, sites 60 and 70 removed, FIG. 14, even greater extent than the 400 mg dose) is recorded as “lowered”; in series [1] (200- and 400 mg, sites 60 and 70 removed, FIG. 16) it was “lowered”; in series [1] (first study, doses of 200- and 400 mg, FIG. 7), “lowered”; in series [1] (second study, dose of 600 mg, FIG. 11), “lowered”. Further, in series [1] (Phase II clinical trial), the anti-edema activity entry is reported as “had anti-edema activity of its own”. The “side effects: hepatoxicity, edema, heart failure, increased weight gain” value in series [1] (Phase II clinical trial) is listed as “largely free”. Also, the “adverse effects on selected parameters of upper GI tract, liver, blood, kidney” value in series [1] (data not shown) is recorded as “not associated with an excess of adverse effects”. Moreover, in series [1] (data not shown), the “effect on the HDL/cholesterol profile” value is “neutral effect”. Moreover, the serum triglycerides result in series [1] (data not shown) is “lowered serum triglycerides substantially”. The “weight gain compared to placebo group” value in series [1] (dose of 600 mg, FIG. 18) is “did not induce weight gain”; in series [1] (doses of 200- and 400 mg, FIG. 10) it was “did not induce weight gain”. Besides, the “incidence of edema formation compared to combined placebo groups” value in series [1] (dose range of 200- to 600 mg, both studies, FIG. 17) is given as “did not increase the incidence of edema formation”. Also, the “edema formation compared to placebo groups” value in series [1] (doses of 200- and 400 mg, FIG. 9) is on record as “prevented edema formation”. Also, the “Discontinued due to AE, patients (%)” value in series [1] (first study, 200 mg group) is 3 (4.1%); in series [1] (first study, 400 mg group), 3 (4.3%); in series [1] (second study, 600 mg group), 0 (0%). The “plasma glucose levels as judged by HbA1c levels, from baseline” value in series [1] (second study, 600 mg, FIG. 12, placebo group demonstrated a comparable response) is on record as “lowered”. Moreover, the “blood glucose levels in patients also receiving glyburide” value in series [2] (FIG. 19) was “substantially lower”. The hsCRP levels result in series [2] (FIG. 20) is recorded as “lower”.
On to `NC(=O)COC(=O)C(Oc1cccc(C(F)(F)F)c1)c1ccc(Cl)cc1` (single isomer, unassigned; (-)) [(−)Analog 37], for which the “plasma glucose concentrations vs vehicle (in words)” value in the series on C57BL/6j ob/ob Mice (setting [3]) is “significantly reduced plasma glucose concentrations at 6 hours”.
For the compound `O=C(O)C(Oc1cccc(C(F)(F)F)c1)c1ccc(Cl)cc1` (single isomer, unassigned; (+)) [(+) enantiomer of halofenic acid, (+) 4-chlorophenyl-(3-trifluoromethylphenoxy)-acetic acid], the “inhibition of cytochrome P450 2C9” value on cytochrome P450 2C9 was “quite potent”.
Consider `O=C(NCCOC(=O)C(Oc1cccc(C(F)(F)F)c1)c1ccc(Cl)cc1)c1ccccc1` (single isomer, unassigned; (-)) [(−)Analog 36], for which, in the series on C57BL/6j ob/ob Mice (setting [3]), the “plasma glucose concentrations vs vehicle (in words)” value was “significantly reduced plasma glucose concentrations at 6 hours”.
`CC(=O)NCCOC(=O)C(Oc1cccc(C(F)(F)F)c1)c1ccc(Br)cc1` (racemic) [(±)Analog 29]: in the series on C57BL/6j ob/ob Mice (setting [4]), the “plasma glucose concentrations vs vehicle (in words)” value was “significantly lowered plasma glucose concentrations at 6, 30 and 54 hours”.
With `CN(C)C(=O)COC(=O)C(Oc1cccc(C(F)(F)F)c1)c1ccc(Cl)cc1` (racemic) [(±)Analog 38], the “plasma glucose concentrations vs vehicle (in words)” value in the series on C57BL/6j ob/ob Mice (setting [4]) is “significantly lowered plasma glucose concentrations at 6, 30 and 54 hours”.
On the same count and under the same terms, in the case of `CCCCOC(=O)C(Oc1cccc(C(F)(F)F)c1)c1ccc(Cl)cc1` (racemic) [(±)Analog 33] it was “significantly lowered plasma glucose concentrations at 6 and 54 hours”; in that of `NC(=O)COC(=O)C(Oc1cccc(C(F)(F)F)c1)c1ccc(Cl)cc1` (racemic) [(±)Analog 37], “significantly lowered plasma glucose concentrations at 54 hours”.
Turning to `O=C(O)C(Oc1cccc(C(F)(F)F)c1)c1ccc(Cl)cc1` (racemic) [racemic halofenic acid, 4-Chlorophenyl-(3-trifluoromethylphenoxy)-acetic Acid, reference compound], the “inhibition of cytochrome P450 2C9” value at cytochrome P450 2C9 was “found to inhibit”. In addition, the “kind of PPARγ agonism” value on PPARγ is reported as “partial PPARγ agonists”.
`O=C(O)C(Oc1cccc(C(F)(F)F)c1)c1ccc(Cl)cc1` (single isomer, unassigned; (-)) [(−)halofenic acid, (−) (3-trifluoromethylphenoxy) (4-chlorophenyl)acetic acid]: at cytochrome P450 2C9 (listed as (−) enantiomer of halofenic acid), the “inhibition of cytochrome P450 2C9” value is given as “about twenty-fold less active”. Besides, the “kind of PPARγ agonism” value on PPARγ was “partial agonist”. Further, on PPARγ (FIG. 6), the “ability to induce PPARγ expression” value is reported as “a few fold” and the “antagonizing the agonist activity of rosiglitazone” value is reported as “significantly antagonizing”. Moreover, in the series on C57BL/6j ob/ob Mice (setting [4]), the “plasma glucose concentrations vs vehicle (in words)” value is “significantly reduced plasma glucose concentrations at 6 hours”.
